From US9290511B2, “Thieno-pyrimidines, useful as potassium channel inhibitors” (XENTION LIMITED, priority 2011, dated 2016)

Target: T1, Kir3.1/3.4 (Rattus norvegicus, UniProt P48548+P63251)
T1 construct: expressed in transfected cells
T1 sequence (P63251 1-501): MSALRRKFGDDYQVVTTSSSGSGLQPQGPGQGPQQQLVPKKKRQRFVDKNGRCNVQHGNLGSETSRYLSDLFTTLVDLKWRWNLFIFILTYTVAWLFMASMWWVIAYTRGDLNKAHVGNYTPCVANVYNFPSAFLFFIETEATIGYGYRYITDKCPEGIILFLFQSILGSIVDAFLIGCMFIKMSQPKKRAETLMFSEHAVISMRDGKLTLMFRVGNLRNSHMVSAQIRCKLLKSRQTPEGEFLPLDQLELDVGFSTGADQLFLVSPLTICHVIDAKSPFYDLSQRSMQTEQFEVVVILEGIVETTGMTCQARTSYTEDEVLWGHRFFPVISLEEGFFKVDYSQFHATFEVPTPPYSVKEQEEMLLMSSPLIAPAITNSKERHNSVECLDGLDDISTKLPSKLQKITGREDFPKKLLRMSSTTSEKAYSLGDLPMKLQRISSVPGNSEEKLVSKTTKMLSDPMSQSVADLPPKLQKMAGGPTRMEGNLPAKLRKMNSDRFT
T1 sequence (P48548 1-419): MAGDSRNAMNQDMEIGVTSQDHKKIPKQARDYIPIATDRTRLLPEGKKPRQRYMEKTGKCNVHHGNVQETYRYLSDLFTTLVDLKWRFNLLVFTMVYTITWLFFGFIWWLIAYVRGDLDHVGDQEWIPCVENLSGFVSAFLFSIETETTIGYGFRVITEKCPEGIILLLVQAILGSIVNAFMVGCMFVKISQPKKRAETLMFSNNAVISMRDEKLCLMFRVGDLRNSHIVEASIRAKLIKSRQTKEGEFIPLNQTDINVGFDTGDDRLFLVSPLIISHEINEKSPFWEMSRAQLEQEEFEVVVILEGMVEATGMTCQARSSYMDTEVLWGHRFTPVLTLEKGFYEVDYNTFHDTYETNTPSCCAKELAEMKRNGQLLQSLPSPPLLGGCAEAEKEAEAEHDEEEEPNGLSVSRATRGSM
Experiment: Kir3.1/3.4 Electrophysiology Method (manual whole-cell patch clamp)
Format: cell-based
Conditions: Electrophysiology Method (TABLE 1)
Method: Compound activity against the recombinant G-protein activated inward rectifier current encoded by the heterotetramer Kir3.1/3.4 was assessed using manual whole-cell patch technique. The heterotetramer forms the pore-forming channel that conducts the acetylcholine/adenosine-activated potassium current in the heart.
For whole-cell patch-clamp studies, cells (Human Embryonic Kidney 293 stably transfected with rat Kir3.1/3.4) were seeded onto glass coverslips before recordings were made. Cells were seeded in sterile 30 mm Petri dishes at a density to enable isolated cells to be selected for patch clamp experiments. The dishes were stored in a humidified, gassed (5% CO2) incubator at 37° C. until use.
Whole-cell patch-clamp recordings of membrane currents were made following gigaohm seal formation between the patch electrode and the cell using HEKA EPC-9/10 amplifiers controlled by Pulse Software (Ver8.5x/8.6×/8.7×, HEKA, Germany). Coverslips seeded with cells were placed in a recording chamber mounted on the stage of an inverted microscope. During the experiment, the cell of interest was continuously superfused with bather solution delivered via a cannula placed in close proximity to the cell to enable control of the extracellular solution environment. Only those cells with a current <−500 pA (current at −140 mV) were used for experiments. During experiments, series resistance was compensated by a minimum of 70%.
Electrophysiology voltage-step protocols and analysis of data were performed as follows. Data was sampled at 5 kHz, and filtered with a −3 dB bandwidth of 2.5 kHz. Cells were held at a voltage of −60 mV. Currents were evoked by a depolarising voltage step to +60 mV (100 ms) before a ramp-repolarisation (0.4 V·s^−1) to −140 mV (100 ms) before returning to −60 mV. The command waveform was repeatedly applied every 10 s throughout the experiment. Mean currents during 1-99% of the time at −140 mV were analysed using Pulsefit software (v8.x, HEKA, Germany). The voltage protocol was repeatedly applied to achieve a stable current baseline in bather before the test substance was superfused via the cannula in close proximity to the cell under investigation. The test substance was allowed to equilibrate during which time voltage protocol was repeatedly applied and recorded. On reaching steady-state inhibition, the cell was superfused with an identical bather solution containing zero external potassium chloride (replaced by equimolar NaCl). The identical current measurement was made in the absence of potassium to assess the passive leak at −140 mV. The leak current was subtracted from the control and steady-state drug current values. The percentage inhibition of the leak-subtracted current in the presence of test substance was calculated relative to the control leak-subtracted pre-drug value. Internal patch-pipette solution contained in mM: 110 KCl, 20 NaCl, 0.9 GTPγS, 5 Mg-ATP, 5 EGTA, 10 HEPES, pH7.2 corrected with KOH. The external superfusate composition in mM was: 150 (or 160) NaCl, 10 (or 0) KCl, 3 CaCl2, 1 MgCl, 10 HEPES, pH 7.4 corrected with NaOH.

| Molecule | IC50 [nM] |
| --- | --- |
| NC(=O)C1CCN(c2nc(N3CCC(COCCN4CCCC4)CC3)c3c(-c4ccccc4)csc3n2)C1 (centres unmarked) [Example 256] | < 500 |
| c1nc(N2CCC(COCCN3CCCC3)CC2)c2c(-c3ccoc3)csc2n1 [Example 315] | < 500 |
| NC(=O)C1CCN(c2nc(N3C4CCC3CC(CO)C4)c3c(-c4ccccc4)csc3n2)C1 (centres unmarked) [Example 310] | 500 to 3000 |
| COC1CC2CCC(C1)N2c1nc(OC2CC3CC2CN3)nc2scc(-c3ccccc3)c12 (centres unmarked) [Example 348] | < 500 |
| CN1CCN(c2nc(N3CCC(CN(C)C4CCN(C)C4)CC3)c3c(-c4ccccc4)csc3n2)CC1 (centres unmarked) [Example 111] | < 500 |
| c1ccc(-c2csc3nccc(N4CCC(COCCN5CCCC5)CC4)c23)cc1 [Example 142, 3-phenyl-4-[4-(2-pyrrolidin-1-ylethoxymethyl)-1-piperidyl]thieno[2,3-b]pyridine] | < 500 |
| N-(2-pyrrolidin-1-ylethyl)thieno[2,3-d]pyrimidin-2-amine [Example 108] | 500 to 3000 |
| FC(F)(F)C1CCCN(CC2CCN(c3ncnc4scc(-c5ccccc5)c34)CC2)C1 (centres unmarked) [Example 212] | < 500 |
| c1ccc(-c2csc3ncnc(N4CCC(CNCCC5CCCN5)CC4)c23)cc1 (centres unmarked) [Example 85, N-[[1-(5-phenylthieno[2,3-d]pyrimidin-4-yl)-4-piperidyl]methyl]-2-pyrrolidin-2-yl-ethanamine] | 500 to 3000 |
| CN(C)CCCNCC1CCN(c2ncnc3scc(-c4ccccc4)c23)CC1 [Example 217] | < 500 |
| CN(CCC1CCCN1)CC1CCN(c2ncnc3scc(-c4ccccc4)c23)CC1 (centres unmarked) [Example 86, N-methyl-N-[[1-(5-phenylthieno[2,3-d]pyrimidin-4-yl)-4-piperidyl]methyl]-2-pyrrolidin-2-yl-ethanamine] | < 500 |
| NC(=O)C1CCCN1CC1CCN(c2ncnc3scc(-c4ccccc4)c23)CC1 (centres unmarked) [Example 247] | < 500 |
| CN1CCCCC1CCNCC1CCN(c2ncnc3scc(-c4ccccc4)c23)CC1 (centres unmarked) [Example 80, 2-(1-methyl-2-piperidyl)-N-[[1-(5-phenylthieno[2,3-d]pyrimidin-4-yl)-4-piperidyl]methyl]ethanamine] | < 500 |
| c1ccc(-c2csc3nc(N4CCC(COCCN5CCCC5)C4)ncc23)cc1 (centres unmarked) [Example 149] | < 500 |
| COCC1CCN(c2nc(N3C4CCC3CC(O)C4)nc3scc(-c4ccccc4)c23)CC1 (centres unmarked) [Example 299] | 500 to 3000 |
| O=C(NCCN1CCOCC1)C1CCCN(c2ncnc3scc(-c4ccccc4)c23)C1 (centres unmarked) [Example 285] | 500 to 3000 |
| Cc1sc2ncnc(N3CCC(CNCCC4CCCCN4C)CC3)c2c1C (centres unmarked) [Example 233] | < 500 |
| CNC(=O)c1sc2ncnc(N3CCC(COCCN4CCCC4)CC3)c2c1-c1ccccc1 [Example 141] | < 500 |
| CN(CC1CCN(c2ncnc3scc(-c4ccccc4)c23)CC1)CC1CCCN1 (centres unmarked) [Example 83, N-methyl-1-[1-(5-phenylthieno[2,3-d]pyrimidin-4-yl)-4-piperidyl]-N-(pyrrolidin-2-ylmethyl)methanamine] | < 500 |
| c1ccc(-c2csc3ncnc(N4[C@@H]5CC[C@H]4CC(COCCN4CCCC4)C5)c23)cc1 (stereo partly drawn) [Example 164, 5-phenyl-4-[(1S,5R)-3-(2-pyrrolidin-1-ylethoxymethyl)-8-azabicyclo[3.2.1]octan-8-yl]thieno[2,3-d]pyrimidine] | < 500 |
| COCCNc1nc(N2CCC(CN3CCCC(N(C)C)C3)CC2)c2c(-c3ccccc3)csc2n1 (centres unmarked) [Example 124] | < 500 |

| Molecule | IC50 [nM] |
| --- | --- |
| CN(C)CCOCC1CCN(c2nc(N3CCC(C(N)=O)C3)nc3scc(-c4ccccc4)c23)CC1 (centres unmarked) [Example 14, 1-[4-[4-(2-dimethylaminoethyloxymethyl)-1-piperidyl]-5-phenyl-thieno[2,3-d]pyrimidin-2-yl]pyrrolidine-3-carboxamide] | < 500 |
| O[C@H]1CCN(CC2CCN(c3ncnc4scc(-c5ccccc5)c34)CC2)C1 [Example 190] | < 500 |
| CCN(CC)C(=O)C1CCCN(CC2CCN(c3ncnc4scc(-c5ccccc5)c34)CC2)C1 (centres unmarked) [Example 246] | < 500 |
| Brc1sc2nccc(N3CCC(COCCN4CCCC4)CC3)c2c1-c1ccccc1 [Example 143] | < 500 |
| Cn1ccnc1CCNCC1CCN(c2ncnc3scc(-c4ccccc4)c23)CC1 [Example 221] | < 500 |
| NC(=O)C1CCN(c2nc(N3CC4CC3CO4)c3c(-c4ccccc4)csc3n2)C1 (centres unmarked) [Example 309] | 3000 to 10000 |
| CNC(=O)c1sc2ncnc(N3C4CCC3CC(COCCN3CCCC3)C4)c2c1-c1ccccc1 (centres unmarked) [Example 361] | < 500 |
| OC1(CN2CCCC2)CCN(c2ncnc3scc(-c4ccccc4)c23)CC1 [Example 195] | < 500 |
| O=C(Cc1nc(N2CCCC2c2ccccc2)c2c(-c3ccc(F)cc3)csc2n1)NCCN1CCCC1 (centres unmarked) [Example 199] | < 500 |
| c1ccc(-c2csc3ncnc(N4CC5C(COCCN6CCOCC6)C5C4)c23)cc1 (centres unmarked) [Example 38, 4-[2-[[3-(5-phenylthieno[2,3-d]pyrimidin-4-yl)-3-azabicyclo[3.1.0]hexan-6-yl]methoxy]ethyl]morpholine] | 500 to 3000 |
| c1ccc(-c2csc3ncnc(N4CCC(CNCc5ccco5)CC4)c23)cc1 [Example 61, 1-(2-furyl)-N-[[1-(5-phenylthieno[2,3-d]pyrimidin-4-yl)-4-piperidyl]methyl]methanamine] | < 500 |
| O=C1NCCN1c1sc2ncnc(N3CCC(COCCN4CCCC4)CC3)c2c1-c1ccccc1 [Example 368] | < 500 |
| c1ccc(-c2csc3nc(N4CCN(CCN5CCCC5)CC4)ncc23)cc1 [Example 145] | < 500 |
| CC(=O)Nc1sc2nc(N3CCC(COCCN4CCCC4)CC3)ncc2c1-c1ccccc1 [Example 155, N-[5-phenyl-2-[4-(2-pyrrolidin-1-ylethoxymethyl)-1-piperidyl]thieno[2,3-d]pyrimidin-6-yl]acetamide] | 500 to 3000 |
| c1ccc(-c2csc3ncnc(N4CCC(CN5CCC5)CC4)c23)cc1 [Example 73, 4-[4-(azetidin-1-ylmethyl)-1-piperidyl]-5-phenyl-thieno[2,3-d]pyrimidine] | 500 to 3000 |
| Cc1sc2nc(N3CCC(C(N)=O)C3)nc(N3CCC(CNCCC4CCCCN4C)CC3)c2c1C (centres unmarked) [Example 240] | < 500 |
| c1ccc(-c2coc3ncnc(N4CCC(COCCN5CCCC5)CC4)c23)cc1 [Example 308, 5-phenyl-4-[4-(2-pyrrolidin-1-ylethoxymethyl)-1-piperidyl]furo[2,3-d]pyrimidine] | < 500 |
| 5-phenyl-thieno[2,3-d]pyrimidine [Example 160] | < 500 |
| COCC1CCN(c2nc(OC3CC4CC3CN4)nc3scc(-c4ccccc4)c23)CC1 (centres unmarked) [Example 307] | < 500 |
| CN1CCC[C@H]1CCNCC1CCN(c2ncnc3scc(-c4ccccc4)c23)CC1 [Example 100] | < 500 |
